Measurements taken from patent US20160287666A1 (priority 2015, published 2016).
Ends that are not written are not given here.

Tests used:
human Nav1.7 = human Nav1.7 (Homo sapiens, UniProt Q15858, W1161R); type: cell-based
human Nav1.6 [1] = molecular target: T1, human Nav1.6 (Homo sapiens, UniProt Q9UQD0); type: cell-based
[2] = tested on: CFA-induced thermal hyperalgesia; set-up: species or system mice; conditions: mouse, in vivo; for CFA-induced thermal hyperalgesia (thermal latency, Hargreaves test): sc
human Nav1.7 (human) = human Nav1.7 (human) (UniProt Q15858); experiment: cell-based or functional assay
acute thermal pain [3] = conditions: rat, in vivo
[4] = tested on: injury-induced pain (formalin); conditions: rat, in vivo
thermal pain = tested on: thermal pain; set-up: species or system mice; conditions: in vivo
[5] = tested on: CFA-induced tactile allodynia; set-up: species or system mice; conditions: mouse, in vivo
acute thermal pain [6] = conditions: rat, in vivo; remark: listed apart in the source
[7] = tested on: carrageenan-induced thermal hyperalgesia; set-up: species or system mice; conditions: mouse, in vivo
human Nav1.6 [8] = molecular target: T1, human Nav1.6; experiment: cell-based or functional assay

T1 sequence (Q9UQD0 whole entry): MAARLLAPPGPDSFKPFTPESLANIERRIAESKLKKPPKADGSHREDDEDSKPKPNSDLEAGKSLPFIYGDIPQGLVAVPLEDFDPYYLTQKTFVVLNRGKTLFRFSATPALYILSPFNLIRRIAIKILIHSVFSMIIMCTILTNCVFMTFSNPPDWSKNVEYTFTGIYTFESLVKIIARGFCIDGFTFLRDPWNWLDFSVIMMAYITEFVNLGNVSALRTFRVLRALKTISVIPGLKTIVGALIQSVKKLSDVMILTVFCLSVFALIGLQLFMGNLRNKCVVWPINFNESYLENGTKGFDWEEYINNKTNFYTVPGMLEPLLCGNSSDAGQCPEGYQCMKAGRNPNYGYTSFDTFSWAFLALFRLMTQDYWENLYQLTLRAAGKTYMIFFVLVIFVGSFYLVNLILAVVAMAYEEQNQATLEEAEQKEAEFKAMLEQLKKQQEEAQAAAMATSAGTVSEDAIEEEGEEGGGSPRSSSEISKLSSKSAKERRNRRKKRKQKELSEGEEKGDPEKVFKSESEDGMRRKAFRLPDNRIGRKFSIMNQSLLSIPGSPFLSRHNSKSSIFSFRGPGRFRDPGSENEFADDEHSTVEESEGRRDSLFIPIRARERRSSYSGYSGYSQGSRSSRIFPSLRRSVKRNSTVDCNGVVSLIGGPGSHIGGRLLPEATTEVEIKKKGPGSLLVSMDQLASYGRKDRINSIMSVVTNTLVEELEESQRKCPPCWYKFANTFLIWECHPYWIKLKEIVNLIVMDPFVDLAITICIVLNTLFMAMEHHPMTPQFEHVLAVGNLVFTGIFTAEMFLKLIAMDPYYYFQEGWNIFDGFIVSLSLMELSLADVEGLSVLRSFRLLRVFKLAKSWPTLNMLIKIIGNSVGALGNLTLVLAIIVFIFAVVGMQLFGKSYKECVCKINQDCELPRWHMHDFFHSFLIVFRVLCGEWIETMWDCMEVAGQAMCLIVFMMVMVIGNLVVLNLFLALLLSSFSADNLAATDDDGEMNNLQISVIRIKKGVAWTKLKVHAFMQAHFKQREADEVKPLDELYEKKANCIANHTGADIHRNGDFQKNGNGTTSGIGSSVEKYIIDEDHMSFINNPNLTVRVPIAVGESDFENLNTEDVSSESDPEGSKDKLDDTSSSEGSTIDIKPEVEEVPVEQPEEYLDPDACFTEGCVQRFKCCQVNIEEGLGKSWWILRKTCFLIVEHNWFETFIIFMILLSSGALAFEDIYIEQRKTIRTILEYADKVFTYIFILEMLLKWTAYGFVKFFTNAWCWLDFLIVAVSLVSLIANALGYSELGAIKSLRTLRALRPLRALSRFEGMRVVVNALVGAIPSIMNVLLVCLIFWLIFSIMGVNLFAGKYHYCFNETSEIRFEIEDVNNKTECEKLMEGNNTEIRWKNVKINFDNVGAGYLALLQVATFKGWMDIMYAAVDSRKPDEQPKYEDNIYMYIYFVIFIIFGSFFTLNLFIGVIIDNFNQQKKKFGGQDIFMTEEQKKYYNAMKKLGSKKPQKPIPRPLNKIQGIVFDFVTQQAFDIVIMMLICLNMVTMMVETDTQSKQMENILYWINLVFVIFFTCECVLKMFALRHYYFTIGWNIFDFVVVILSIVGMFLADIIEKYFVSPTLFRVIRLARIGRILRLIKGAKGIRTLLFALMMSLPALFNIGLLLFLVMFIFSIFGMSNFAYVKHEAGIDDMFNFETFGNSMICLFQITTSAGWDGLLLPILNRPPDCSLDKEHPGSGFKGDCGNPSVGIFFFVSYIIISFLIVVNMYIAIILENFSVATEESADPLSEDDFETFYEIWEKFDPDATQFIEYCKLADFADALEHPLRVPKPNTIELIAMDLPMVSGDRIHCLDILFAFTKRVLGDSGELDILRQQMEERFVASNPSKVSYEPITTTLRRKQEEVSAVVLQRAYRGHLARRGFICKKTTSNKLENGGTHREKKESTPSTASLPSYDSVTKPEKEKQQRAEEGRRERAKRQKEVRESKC

Substance: GPQCQKWMQTCDARRKCCEGFVCRLWCKKKLW-OH (cysteine pairing not given here) [NV1D3006]
- hNav1.7 QP % blk (human Nav1.7): 52.3% @ 10 nM

Substance: GPQCQKWMQTCDRERKCCEGFVCTLWCRKKLW-NH-methyl [NV1D3034-NH-methyl]
- selectivity towards Nav1.7 compared to recombinant Protoxin-II (human Nav1.6 [1]): improved selectivity
- CFA-induced thermal hyperalgesia [2]: readily reversed

Substance: GPQCQKWMQTCDRTRKCCEGFVCTLWCRKKLW-OH (cysteine pairing not given here) [NV1D3368]
- selectivity towards Nav1.7 compared to recombinant Protoxin-II (human Nav1.6 [1]): improved selectivity
- CFA-induced thermal hyperalgesia (thermal latency, Hargreaves test) [2]: fully reversed

Substance: wild type Protoxin-II (peptide)
- IC50 (FLIPR assay, veratridine-induced membrane depolarization) (human Nav1.7 (human)): 4 nM

Substance: GPYCQKWMQTCDANRKCCEGFSCRLWCKKKLW-OH (cysteine pairing not given here) [NV1D3586]
- selectivity towards Nav1.7 compared to recombinant Protoxin-II (human Nav1.6 [1]): improved selectivity

Substance: GPQCQKWMQTCDRERKCCEGFVCTLWCRKKLW-NH-butyl [NV1D3034-NH-butyl]
- selectivity towards Nav1.7 compared to recombinant Protoxin-II (human Nav1.6 [1]): improved selectivity

Substance: GPQCQKWMQTCDRTRKCCEGFVCTLWCRKKLW-NH2 [NV1D3368-NH2]
- selectivity towards Nav1.7 compared to recombinant Protoxin-II (human Nav1.6 [1]): improved selectivity
- CFA-induced thermal hyperalgesia [2]: readily reversed

Substance: GPQCQKWMQTCDAERKCCEGFSCTLWCKKKLW-NH2 [NV1D2974-NH2]
- selectivity towards Nav1.7 compared to recombinant Protoxin-II (human Nav1.6 [1]): improved selectivity

Substance: GPQCQKWMQTCDRERKCCEGFVCTLWCRKKLW-NH2 [NV1D3034-NH2]
- selectivity towards Nav1.7 compared to recombinant Protoxin-II (human Nav1.6 [1]): improved selectivity

Substance: Ac-QCQKWMQTCDAERKCCEGFSCTLWCKKKLW-NH2 [(-GP) N-Ac-NV1D2974-NH2]
- selectivity towards Nav1.7 compared to recombinant Protoxin-II (human Nav1.6 [1]): improved selectivity

Substance: GPQCQKWMQTCDAERKCCEGFVCRLWCKKKLW-OH (cysteine pairing not given here) [NV1D2775]
- tail flick test latency (acute thermal pain [3]): significant efficacy
- anti-hyperalgesic effect first seen, time post-pump implantation [2]: 4 h
- thermal latency returned to the control level, time post pump implantation [2]: ≤ 48 h
- time at which the effect reached the maximum, thermal test [2]: 8 h
- CFA-induced thermal hyperalgesia (thermal latency, Hargreaves test) [2]: reached values close to the cut-off
- formalin test flinches [4]: significant efficacy
- analgesia in the mouse hotplate test (FIG. 8) (thermal pain): significant analgesia
- hotplate latency (thermal pain; mouse): reached values near cut-off
- tactile threshold returned to the control level, time post pump implantation [5]: ≤ 48 h
- time at which the effect reached the maximum, tactile test [5]: 8 h
- hot plate test latency (acute thermal pain [6]): significant efficacy
- analgesia (thermal withdrawal latency) in the carrageenan study [7]: significant analgesia

Substance: recombinant Protoxin-II (peptide)
- IC50 (QPatch electrophysiology assay) (human Nav1.6 [8]): 6.2e-08 M
- ratio of IC50 for Nav1.6 to IC50 for Nav1.7 (QPatch) (human Nav1.6 [8]): 28 fold

Substance: GPQCQKWMQSCDRERKCCEGFVCTLWCRKKLW-OH (cysteine pairing not given here) [NV1D3359]
- selectivity towards Nav1.7 compared to recombinant Protoxin-II (human Nav1.6 [1]): improved selectivity

Substance: GPACQKWMQTCDANRKCCEGFSCRLWCKKKLW-OH (cysteine pairing not given here) [NV1D3587]
- selectivity towards Nav1.7 compared to recombinant Protoxin-II (human Nav1.6 [1]): improved selectivity

Substance: GPQCQKWMQTCDRNRKCCEGFVCTLWCRKKLW-OH (cysteine pairing not given here) [NV1D3044]
- selectivity towards Nav1.7 compared to recombinant Protoxin-II (human Nav1.6 [1]): improved selectivity

Substance: GPQCQKWMQTCDRERKCCEGFVCTLWCRKKLWGSAPAPAPAPAPGSCCNCSSKWCRDHSRCC [NV1D3799]
- hNav1.7 QP % blk (human Nav1.7): 22.2% @ 30 nM

Substance: GPQCQKWMQTCDAERKCCEGFVCRLWCKKKLW-NH2 [NV1D2775-NH2]
- selectivity towards Nav1.7 compared to recombinant Protoxin-II (human Nav1.6 [1]): improved selectivity

Substance: GPYCQKWMQTCDANRKCCEGFSCRLWCKKKLW-NH2 [NV1D3586-NH2]
- selectivity towards Nav1.7 compared to recombinant Protoxin-II (human Nav1.6 [1]): improved selectivity

Substance: GPQCQKWMQTCDRERKCCEGFVCTLWCRKKLW-OH (cysteine pairing not given here) [NV1D3034]
- tail flick test latency (acute thermal pain [3]): significant efficacy
- CFA-induced thermal hyperalgesia (thermal latency, Hargreaves test) [2]: completely reversed
- formalin test flinches [4]: significant efficacy
- hot plate test latency (acute thermal pain [6]): significant efficacy

Substance: GPQCQKWMQTCDAERKCCEGFSCTLWCKKKLW-OH (cysteine pairing not given here) [NV1D2974]
- selectivity towards Nav1.7 compared to recombinant Protoxin-II (human Nav1.6 [1]): improved selectivity

Substance: GPQCQKWMQTCDRERKCCQGFVCTLWCRKKLW-OH (cysteine pairing not given here) [NV1D3388]
- selectivity towards Nav1.7 compared to recombinant Protoxin-II (human Nav1.6 [1]): improved selectivity

Substance: Ac-QCQKWMQTCDRERKCCEGFVCTLWCRKKLW-NH2 [(-GP) N-Ac-NV1D3034-NH2]
- selectivity towards Nav1.7 compared to recombinant Protoxin-II (human Nav1.6 [1]): improved selectivity

Substance: GPACQKWMQTCDRNRKCCEGFVCTLWCRKKLW-OH (cysteine pairing not given here) [NV1D3541]
- selectivity towards Nav1.7 compared to recombinant Protoxin-II (human Nav1.6 [1]): improved selectivity
